The values below come from patent US20260317304A1, “TEAD INHIBITORS AND METHODS OF USE” (Sporos BioDiscovery, Inc., priority 2022, published 2026).

In general, pIC50 refers to −log10 of the IC50, conventionally taken in molar units. Higher therefore signals a low IC50.

pIC50: −log10 of the molar value.

Test [1] relates to NCI-H226 cells. Nature of the test: Proliferation and cell viability assay, Cell Titer One. As to conditions: Cell Titer One assay, 6 days. In kind it is cell-based, human. The method, then: (§1) Cell proliferation of a TEAD dependent NF2-null mesothelioma cell line, NCI-H226 was assayed using two different protocols. Results were confirmed in two different TEAD-non-dependent lung cancer cell lines, H23 and H28, were used as non-responsive controls, as indicated:
(§2) b) Cell Titer One (Promega, #G3582). The effect of the TEAD inhibitors disclosed herein on cell proliferation was also determined using the Promega Substrate Cell Titer Aqueous One Solution Reagent. The TEAD inhibitors were evaluated for the effects on cell proliferation responder (H226) and non-responder negative control cancer cell lines (CAMA1, H28), as well as non-transformed normal human cells (HUVEC, NHDF). Dissociated cells were resuspend in media (depending on cell line, either in DMEM, RPMI, or EMEM all with 10% FBS, with gentamicin as an antibiotic). Cells were seeded at 100 μL/well at 750 cells per well in 96-well plates and allowed to settle and attach. After an incubation of 24 hrs (37° C., 5% CO2, humidified incubator), 100 μL of test compound-containing media was added. A dilution series of 2000× concentrated stock of test compounds was prepared in DMSO, for final concentrations from 0.1 to 10,000 nM. After addition of test compound-containing media, cells were incubated for 6 days at 37° C., 5% CO2, humidified incubators). To measure cell density, 20 μL of Promega Substrate Cell Titer 96 Aqueous One Solution Reagent (Promega, #G3582) to each well was added according to the manufacturer's instructions. Plates were incubated at 37° C. for usually 3-8 hrs, to reach in the control cells (without compound) an OD of 1.5 at 490 nm. The OD was measured using Vmax [Molecular Devices] spectrophotometer plate reader. Media only-wells were used as background controls and cell densities normalized to DMSO vehicle control. EC50 were taken as the concentration achieving 50% of maximal growth inhibition.
For IC50 and EC50 data “A” indicates a value of less than 0.2 μM; the symbol “B” indicates a value in the range of from 0.2 μM up to 1 μM; and the symbol “C” indicates a value of greater than 1 μM. ND: no data.

Test [2] relates to MSTO-211H xenograft. Nature of the test: Mouse xenograft MSTO-211H tumors compared to prior art TEAD inhibitor. As to conditions: 7 days of treatment, PO BID, 12.5 mg/kg Compound 5. In kind it is in vivo, BALB/c nude mice. The method, then:
This study evaluated the in vivo anti-tumor efficacy of test compounds in BALB/c nude mice for treatment of MSTO-211H xenograft of lung cancer.
The MSTO-211H tumor cells were maintained in vitro in RPMI 1640 medium supplemented with 10% Fetal bovine serum and 1% Antibiotic-Antimycotic at 37° C. in an atmosphere of 5% CO2 in air. The tumor cells were routinely subcultured twice weekly by trypsin-EDTA. The cells growing in an exponential growth phase were harvested and counted for tumor inoculation.
Each mouse was inoculated subcutaneously at the right flank with MSTO-211H tumor cells (10×10^6+50% matrigel/0.2 mL) for tumor development. Test subjects received vehicle (e.g., 0.5% CMC-Na+1% Tween80) beginning on day 7 after cell inoculation. […]
The major endpoint was to determine if the tumor growth could be delayed. Tumor size was measured twice a week in two dimensions using a caliper, and the volume was expressed in mm^3 using the formula: V=0.5 a×b^2 where a and b are the long and short diameters of the tumor, respectively. […]
Summary statistics, including mean and the standard error of the mean (SEM), were calculated for the tumor volume of each group at each time point. […]
One-tailed T test was performed to compare tumor volumes between two groups. All data were analyzed using GraphPad Prism 6.0. p<0.05 was considered to be statistically significant.

Test [3] relates to NCI-H28 cells. The experiment in a line: Proliferation and cell viability assay, Cell Titer One. In kind it is cell-based. As to conditions: Homo sapiens, NCI-H28, 144 h; Cell Titer One assay, non-responder, 6 days. Here is the method: as §1
as §2, with “To measure cell density, 20 μL of Promega Substrate Cell Titer 96 Aqueous One Solution Reagent (Promega, #G3582) to each well was added according to the manufacturer's instructions. Plates were incubated at 37° C. for usually 3-8 hrs, to reach in the control cells (without compound) an OD of 1.5 at 490 nm.” left out, “Media only-wells were used as background controls and cell densities normalized to DMSO vehicle control. EC50 were taken as the concentration achieving 50% of maximal growth inhibition.” left out

Take `Cn1cnc(-c2cc([C@@]3(C)CCNC3=O)ccc2Nc2ccc(C(F)(F)F)cc2)c1` (single isomer, unassigned) [Compound 5, 3-methyl-3-(3-(1-methyl-1H-imidazol-4-yl)-4-((4-(trifluoromethyl)phenyl)amino)phenyl)pyrrolidin-2-one]: the pIC50 in test [1] (Homo sapiens, NCI-H226, 144 h) is > 6.70; in test [3] it was < 6.00. Further, the “change in tumor volume (in words)” value in test [2] is “tumor reduction was observed”.

Regarding `Cn1cnc(-c2cc(C3(C)NC(=O)NC3=O)ccc2Nc2ccc(C(F)(F)F)cc2)c1` (single isomer, unassigned) [Compound 15, 5-methyl-5-(3-(1-methyl-1H-imidazol-4-yl)-4-((4-(trifluoromethyl)phenyl)amino)phenyl)imidazolidine-2,4-dione], the pIC50 in test [1] was > 6.70.
